Laboratory results from PMC10648349, “Aromatic Diboronic Acids as Effective KPC/AmpC Inhibitors” (Molecules, 2023).
≈ marks a conversion by molar mass, not a printed value.

What was measured:
C. krusei ATCC 6258 = assay: antifungal activity (disc-diffusion, MIC, MFC); assay type: cell-based, Candida krusei; settings: Pichia kudriavzevii, ATCC6258; for MIC: fluconazole by Etest
Procedure: (§1) Direct antimicrobial activity against Gram-negative and Gram-positive bacterial strains, as well as against yeast, was examined as previously described by the disc-diffusion test, the MIC determination assay, the MBC (for bacteria), and the MFC (for yeasts) determination tests. All the above-mentioned tests were performed according to EUCAST [71, 72] and CLSI [73, 74, 75, 76, 77] recommendations. The following reference agents were used: nitrofurantoin (for Gram-negative rods), linezolid (for Gram-positive bacteria), and fluconazole (in the case of fungi). The new aromatic diboronic acids were dissolved in DMSO (Sigma, St. Louis, MO, USA). In the disc-diffusion test, the concentration of new agents was 0.4 mg per disc.

E. faecalis ATCC 29212 = assay: direct antimicrobial activity (disc-diffusion, MIC, MBC); assay type: cell-based; settings: Enterococcus faecalis, ATCC29212
Procedure: as §1

E. faecium ATCC 6057 = assay: as above; assay type: cell-based; settings: Enterococcus faecium, ATCC6057
Procedure: as §1

S. aureus ATCC 6538P = assay: as above; assay type: cell-based; settings: Staphylococcus aureus, ATCC6538P
Procedure: as §1

[1] = system: S. epidermidis ATCC 12228; assay: as above; assay type: cell-based; settings: Staphylococcus epidermidis, ATCC12228
Procedure: as §1

[2] = system: S. aureus ATCC 43300 MRSA; assay: as above; assay type: cell-based; settings: Staphylococcus aureus
Procedure: as §1

[3] = system: C. guilliermondii IBA 155; assay: antifungal activity (disc-diffusion, MIC, MFC); assay type: cell-based, Candida guilliermondii; settings: Meyerozyma guilliermondii, IBA155; for MIC: fluconazole by Etest
Procedure: as §1

C. tropicalis ATCC 750 = assay: antifungal activity (disc-diffusion, MIC, MFC); assay type: cell-based; settings: Candida tropicalis, ATCC750; for MIC: fluconazole by Etest
Procedure: as §1

C. albicans ATCC 90028 = assay: antifungal activity (disc-diffusion, MIC, MFC); assay type: cell-based; settings: Candida albicans, ATCC90028; for MIC: fluconazole by Etest
Procedure: as §1

S. cerevisiae ATCC 9763 = assay: antifungal activity (disc-diffusion, MIC, MFC); assay type: cell-based; settings: Saccharomyces cerevisiae, ATCC9763; for MIC: fluconazole by Etest
Procedure: as §1

C. tropicalis IBA 171 = assay: antifungal activity (disc-diffusion, MIC, MFC); assay type: cell-based; settings: Candida tropicalis, IBA171; for MIC: fluconazole by Etest
Procedure: as §1

[4] = MTT-based viability assay; assay type: cell-based; settings: human, MRC-5 human fibroblasts, 72 h, read-out: Viability of MRC-5 cells (% of viable cells ± SD)
Procedure: MRC-5 human fibroblasts (ECACC) were cultured in MEME, Minimum Essential Medium Eagle (Merck) supplemented with 10% fetal bovine serum (Merck), 2 mM l-glutamine, antibiotics (100 U/mL penicillin, 100 μg/mL streptomycin, Merck) and 1% non-essential amino acids (Merck). Cells were grown in 75 cm^2 cell culture flasks (Sarstedt) in a humidified atmosphere of CO2/air (5/95%) at 37 °C. MTT-based viability assay was conducted as described previously. Optical densities were measured at 570 nm using a BioTek microplate reader. All measurements were carried out in three replicates, and the results were expressed as a percent of viable cells versus control cells.

[5] = system: C. parapsilosis ATCC 22019; assay: antifungal activity (disc-diffusion, MIC, MFC); assay type: cell-based, Candida parapsilosis; settings: Lodderomyces parapsilosis, ATCC22019; for MIC: fluconazole by Etest
Procedure: as §1

[6] = system: K. pneumoniae 81 KPC-3-positive; assay: checkerboard microdilution, antibiotic plus tested agent; assay type: cell-based, Klebsiella pneumoniae; settings: Klebsiella pneumoniae; read-out: MIC of imipenem alone
Procedure: (§2) To examine the ability of tested agents to inhibit various carbapenemases and AmpC-enzymes, their synergy with antibiotics against β-lactamase-producing strains was assessed by checkerboard microdilution assay, with slight modification. Checkerboards were prepared in microtiter plates, with seven two-fold dilutions of β-lactams (1–64 mg/L) in the rows and three two-fold dilutions of tested agents and PBA (4–16 mg/L) in the columns. Tested agents’ concentrations were limited to the concentrations at which the newest commercially available BLIs (vaborbactam, relebactam, and avibactam) are used in susceptibility testing. Plates were inoculated and incubated as in the MIC microdilution assay. Parallel, MICs of tested agents and PBA alone were determined by the microdilution assay. Following the incubation, antibiotic MICs in the presence of each agent’s concentration were determined. Moreover, for the first well without growth found in each checkerboard row and column along the growth/non-growth interface, the fractional inhibitory concentration index (FICI) was calculated using the formula below:FICI = [(MIC of antibiotic in combination)/(MIC of antibiotic alone)] + [(MIC of the tested agent in combination)/(MIC of tested agent alone)].
(§3) For calculations, all off-scale MICs were converted to the next-highest doubling concentration. Subsequently, both the average and the lowest FICI were interpreted. The interpretation was as follows: FICI ≤ 0.5, synergy; 0.5 < FICI ≤ 4, indifference and FICI > 4, antagonism. Primarily, examined combinations consisted of meropenem (Pol-Aura, Morag, Poland) plus tested agents against carbapenemases-producing strains and ceftazidime (Pol-Aura, Morag, Poland) plus tested agents against AmpC-producing strains. For agents that reduced meropenem MIC at least 4-fold for at least two tested strains, similar assays were performed with imipenem (Pol-Aura, Morag, Poland) and ertapenem (Pol-Aura, Morag, Poland).

[7] = system: K. pneumoniae 83 KPC-3-positive, CTX-M-3-positive; assay: as above; assay type: cell-based, Klebsiella pneumoniae; settings: Klebsiella pneumoniae; read-out: MIC of imipenem alone
Procedure: as §2, §3

[8] = system: K. pneumoniae ATCC BAA-1705 KPC-2-positive; assay: as above; assay type: cell-based, Klebsiella pneumoniae; settings: Klebsiella pneumoniae, ATCCBAA1705; read-out: MIC of imipenem alone
Procedure: as §2, §3

[9] = system: E. coli 76 KPC-2-positive; assay: as above; assay type: cell-based, Escherichia coli; settings: Escherichia coli; read-out: MIC of imipenem alone
Procedure: as §2, §3

[10] = system: E. coli 77 CMY-2-positive; assay: combination disc test CDT-AmpC; assay type: cell-based; settings: Escherichia coli
[11] = system: P. aeruginosa MUW 700 cAmpC-positive; assay: checkerboard microdilution, antibiotic plus tested agent; assay type: cell-based, Pseudomonas aeruginosa; settings: Pseudomonas aeruginosa; read-out: MIC of ceftazidime alone
Procedure: as §2, §3

[12] = system: E. coli 77 CMY-2-positive; assay: as above; assay type: cell-based, Escherichia coli; settings: Escherichia coli; read-out: MIC of ceftazidime alone
Procedure: as §2, §3

[13] = system: P. aeruginosa MUW 700 cAmpC-positive; assay: combination disc test CDT-AmpC; assay type: cell-based; settings: Pseudomonas aeruginosa
[14] = system: K. pneumoniae ATCC 700603 ESBL-positive; assay: combination disc test CDT-ESBL; assay type: cell-based; settings: Klebsiella pneumoniae, ATCC700603
[15] = system: K. pneumoniae ATCC BAA 1705 KPC-2-positive; assay: combination disc test CDT-KPC; assay type: cell-based; settings: Klebsiella pneumoniae, BAA1705; agent 0.3 mg per disc; read-out: Diameter of inhibition zone, MEM-10 disc with agent
E. coli 77 CMY-2(+) = assay: MIC of tested agent alone, microdilution; assay type: cell-based; settings: Escherichia coli; read-out: MIC of agent alone
Procedure: as §2

E. coli 76 KPC-2(+) = assay: MIC of tested agent alone, microdilution; assay type: cell-based; settings: Escherichia coli; read-out: MIC of agent alone
Procedure: as §2

[16] = system: K. pneumoniae 83 KPC-3(+), CTX-M-3(+); assay: MIC of tested agent alone, microdilution; assay type: cell-based; settings: Klebsiella pneumoniae; read-out: MIC of agent alone
Procedure: as §2

[17] = system: K. pneumoniae 81 KPC-3(+); assay: MIC of tested agent alone, microdilution; assay type: cell-based; settings: Klebsiella pneumoniae; read-out: MIC of agent alone
Procedure: as §2

[18] = system: K. pneumoniae ATCC BAA-1705 KPC-2(+); assay: MIC of tested agent alone, microdilution; assay type: cell-based; settings: Klebsiella pneumoniae, ATCCBAA1705; read-out: MIC of agent alone
Procedure: as §2

[19] = system: P. aeruginosa MUW 700 AmpC(+); assay: MIC of tested agent alone, microdilution; assay type: cell-based; settings: Pseudomonas aeruginosa; read-out: MIC of agent alone
Procedure: as §2

[20] = ceftazidime 30 µg per disc, 6 mm disc, read-out: Diameter of inhibition zone, CAZ-30 disc without agent
[21] = 0.4 mg per disc, 9 mm disc (fluconazole 0.025 mg, 6 mm disc), - no zone, read-out: Diameter of inhibition zone
[22] = agent 0.3 mg per disc, read-out: Diameter of inhibition zone, CAZ-30 disc with agent

Compound	MIC (C. krusei ATCC 6258) [µg/mL]	MIC (E. faecalis ATCC 29212) [µg/mL]	MIC (E. faecium ATCC 6057) [µg/mL]	MIC (S. aureus ATCC 6538P) [µg/mL]	MIC [1] [µg/mL]	MIC [2] [µg/mL]	MIC [3] [µg/mL]	MIC (C. tropicalis ATCC 750) [µg/mL]	MIC (C. albicans ATCC 90028) [µg/mL]	MIC (S. cerevisiae ATCC 9763) [µg/mL]	MIC (C. tropicalis IBA 171) [µg/mL]	MIC [5] [µg/mL]	viability at 72 h, 12.5 mg/L [4] [%]	viability at 72 h, 25 mg/L [4] [%]	viability at 72 h, 50 mg/L [4] [%]	also measured
C[C@@H](O)[C@H]1C(=O)N2C(C(=O)O)=C(SCCN=CN)C[C@H]12 [IMI, imipenem, reference compound]	–	–	–	–	–	–	–	–	–	–	–	–	–	–	–	MIC [6]: 8 µg/mL; MIC [7]: 8 µg/mL; MIC [8]: 16 µg/mL; MIC [9]: 128 µg/mL
OB(O)c1ccc(B(O)O)s1 [5b]	400 (≈ 2330 µM)	200 (≈ 1160 µM)	> 400	> 400	> 400	> 400	> 400	> 400	400 (≈ 2330 µM)	> 400	> 400	> 400	101 ± 7.7	110 ± 2.7	87.3 ± 13.6	–
CC(C)(O/N=C(\C(=O)N[C@@H]1C(=O)N2C(C(=O)[O-])=C(C[n+]3ccccc3)CS[C@H]12)c1csc(N)n1)C(=O)O [CAZ, ceftazidime, reference compound]	–	–	–	–	–	–	–	–	–	–	–	–	–	–	–	zone of inhibition at 30 µg/disc [10, 20]: 13 mm; MIC [11]: 128 µg/mL; MIC [12]: 64 µg/mL; zone of inhibition at 30 µg/disc [13, 20]: 11 mm; zone of inhibition at 30 µg/disc [14, 20]: 14 mm
OC(Cn1cncn1)(Cn1cncn1)c1ccc(F)cc1F [Fl, fluconazole, reference compound]	64 (≈ 209 µM)	–	–	–	–	–	0.75 (≈ 2.45 µM)	0.38 (≈ 1.24 µM)	1 (≈ 3.27 µM)	16 (≈ 52.2 µM)	0.38 (≈ 1.24 µM)	2 (≈ 6.53 µM)	–	–	–	zone of inhibition at 0.4 mg/disc (C. krusei ATCC 6258; [21]): 16 mm; zone of inhibition at 0.4 mg/disc [3, 21]: 40 mm; zone of inhibition at 0.4 mg/disc (C. tropicalis ATCC 750; [21]): 40 mm; zone of inhibition at 0.4 mg/disc (C. albicans ATCC 90028; [21]): 43 mm; zone of inhibition at 0.4 mg/disc (S. cerevisiae ATCC 9763; [21]): 12 mm; zone of inhibition at 0.4 mg/disc (C. tropicalis IBA 171; [21]): 39 mm; zone of inhibition at 0.4 mg/disc [5, 21]: 32 mm
OB(O)c1cc(B(O)O)cc(B(O)O)c1 [4a, benzene-1,3,5-triboronic acid]	> 400	> 400	400 (≈ 1910 µM)	> 400	> 400	> 400	> 400	> 400	> 400	> 400	> 400	> 400	102 ± 6.9	84.4 ± 6.4	87.9 ± 8.5	zone of inhibition at 300 µg/disc [15]: 6 mm; zone of inhibition at 300 µg/disc [10, 22]: 20 mm; MIC (E. coli 77 CMY-2(+)): > 400 µg/mL; MIC (E. coli 76 KPC-2(+)): > 400 µg/mL; MIC [16]: > 400 µg/mL; MIC [17]: > 400 µg/mL; MIC [18]: > 400 µg/mL; MIC [19]: > 400 µg/mL; zone of inhibition at 300 µg/disc [13, 22]: 16 mm; zone of inhibition at 300 µg/disc [14, 22]: 14 mm
COc1cc(B(O)O)c(OC)cc1B(O)O [1l]	–	–	–	–	–	–	–	–	–	–	–	–	110 ± 1.6	114 ± 1.8	105 ± 7.8	–

Second part, led by results:

MIC (C. krusei ATCC 6258) [µg/mL]	MIC (E. faecalis ATCC 29212) [µg/mL]	MIC (E. faecium ATCC 6057) [µg/mL]	MIC (S. aureus ATCC 6538P) [µg/mL]	MIC [1] [µg/mL]	MIC [2] [µg/mL]	MIC [3] [µg/mL]	MIC (C. tropicalis ATCC 750) [µg/mL]	MIC (C. albicans ATCC 90028) [µg/mL]	MIC (S. cerevisiae ATCC 9763) [µg/mL]	MIC (C. tropicalis IBA 171) [µg/mL]	MIC [5] [µg/mL]	Compound	viability at 72 h, 12.5 mg/L [4] [%]	viability at 72 h, 25 mg/L [4] [%]	viability at 72 h, 50 mg/L [4] [%]	also measured
400 (≈ 1680 µM)	> 400	> 400	> 400	> 400	> 400	> 400	> 400	> 400	> 400	> 400	> 400	OB(O)c1c(F)c(F)c(B(O)O)c(F)c1F [1g]	104 ± 8.2	107 ± 9.2	98.7 ± 5.8	–
> 400	> 400	400	50	400	400	> 400	> 400	> 400	> 400	> 400	> 400	Cl.OB(O)c1cncc(B(O)O)c1 [6a, pyridine-3,5-diboronic acid hydrochloride]	138 ± 3.6	133.5 ± 0.7	127 ± 2.6	–
